# Assay results from US20120107601A1, “SYSTEMS AND METHODS OF TEMPLATING USING PARTICLES SUCH AS COLLOIDAL PARTICLES” (President and Fellows of Harvard College, priority 2009, published 2012).
# Description: To ensure that the introduction of the hydrophobic compounds into the template structure would not lead to rearrangement of the particles in the 3D array, some of the templates were sintered prior to the introduction step. Sintering temperatures between 700 and 1200° C. were used to evaluate the conditions needed to form strong interparticle necks without distorting the initial packed structure. Sintering was accomplished under a O2 gas flow of 0.7 L/min (Thermo Scientific Lindberg Blue M Three-Zone Tube Furnace, Cole-Parmer, Vernon Hills, Ill., USA) applying a dwell time period of 2 hours. Introduction of the hydrophobic compounds into the interstices of the packed array of particles was accomplished by first placing the template on a hot plate at a predetermined temperature and afterwards depositing the powdery hydrophobic compound on the top of the heated template. The temperature of the hot plate was adjusted to enable melting of the hydrophobic compound on the template surface. Once in liquid form, the compound was sucked into the interstices of the template structure by capillary forces. […] After fluid introduction, the templates were removed from the hot plate and cooled in air at ambient temperature. The fluid-introduced templates were finally fractured to enable evaluation of the fluid-introduction efficiency in an electron microscope.
# Drug-template composites were prepared in the following manner. Templates were prepared from an aqueous colloidal dispersion using the slip-casting method described previously. After slip-casting, the templates were dried in an oven at 110° C. for 12 hours. The templates were then placed on a hotplate at a temperature approximately 5° C. to 10° C. above the melting point of the drug. A small amount of the raw crystalline drug was placed on the surface of the hot template. As the drug was melted, it was drawn into the template by capillary action. These steps were repeated until the template was filled completely. […] The drug-template composites were prepared for dissolution by mild grinding of the sample with a hand-held mortar and pestle.
# The samples were prepared for NMR by the following procedure. Unprocessed, crystalline powders (BASF) were dissolved in deuterated solvents at a concentration of approximately 10 mg/mL and filtered through a 0.2 micrometer PTFE filter to remove any solid impurities before running NMR measurements. Drug-silica composites were ground using a hand-held mortar and pestle, dissolved in deuterated solvents at a (drug) concentration of approximately 10 mg/mL and filtered through a 0.2 micrometer PTFE filter to remove the silica template and any additional solid impurities before running NMR measurements. […] Estradiol was dissolved in deuterated DMSO. […] It is, therefore, to be understood that the foregoing embodiments are presented by way of example only and that, within the scope of the appended claims and equivalents thereto, the invention may be practiced otherwise than as specifically described and claimed. The present invention is directed to each individual feature, system, article, material, kit, and/or method described herein. In addition, any combination of two or more such features, systems, articles, materials, kits, and/or methods, if such features, systems, articles, materials, kits, and/or methods are not mutually inconsistent, is included within the scope of the present invention.
SMILES,stability upon melting,visible color change upon melting and infiltration into the composites,melting without decomposition (introduction of molten compound into templates)
CC(=O)N1CCN(c2ccc(OCC3COC(Cn4ccnc4)(c4ccc(Cl)cc4Cl)O3)cc2)CC1 (centres unmarked) [ketoconazole],stable upon melting,no visible color change,
C[C@]12CC[C@@H]3c4ccc(O)cc4CC[C@H]3[C@@H]1CC[C@@H]2O [estradiol],stable upon melting,no visible color change,
CC(C)OC(=O)C(C)(C)Oc1ccc(C(=O)c2ccc(Cl)cc2)cc1 [fenofibrate],,,can be melted without decomposition
CCC(C)n1ncn(-c2ccc(N3CCN(c4ccc(OCC5COC(Cn6cncn6)(c6ccc(Cl)cc6Cl)O5)cc4)CC3)cc2)c1=O (centres unmarked) [itraconazole],stable upon melting,no visible color change,
Clc1ccccc1C(c1ccccc1)(c1ccccc1)n1ccnc1 [chlotrimazole],stable upon melting,no visible color change,
C(=C\c1ccccc1)/CN1CCN(C(c2ccccc2)c2ccccc2)CC1 [cinnarizine],stable upon melting,,can be melted without decomposition
